Values quoted from earlier work in patent US20110053879A1, “[…] AND AMRUBICIN TO TREAT LUNG CANCER” (priority 2008, published 2011).

Key:
[1] = a specific crystalline form (JP 11-222497 A)
human tumor xenografts = details: several human tumor xenografts implanted in nude mice
[2] = preclinical studies
stage III or IV non-SCLC = details: 45 mg/m^2 on days 1 to 3; chemotherapy-naive patients; intent-to-treat analysis
extensive-stage SCLC = details: 45 mg/m^2 on days 1 to 3; chemotherapy-naive patients; intent-to-treat analysis
[3] = phase II trial

## CC(=O)[C@]1(N)Cc2c(O)c3c(c(O)c2[C@@H](O[C@H]2C[C@H](O)[C@H](O)CO2)C1)C(=O)c1ccccc1C3=O.Cl [Amrubicin hydrochloride]
[1]
  heat stability: excellent in heat stability

## CC(=O)[C@]1(N)Cc2c(O)c3c(c(O)c2[C@@H](O[C@H]2C[C@H](O)[C@H](O)CO2)C1)C(=O)c1ccccc1C3=O [amrubicin, (7S,9S)-9-Acetyl-9-amino-7-[(2-deoxy-β-D-erythro-pentapyranosyl)oxy]-7,8,9,10-tetrahydro-6,11-dihydroxy-5,12-nephthacenedione]
DNA
  strength as a DNA intercalator relative to doxorubicin (weaker): approximately 1/10
Human tumor xenografts
  antitumor activity compared with doxorubicin: more potent antitumor activity than doxorubicin
[2]
  cardiotoxicity: almost no cardiotoxicity
Stage III or IV non-SCLC
  response rate, stage III or IV non-SCLC: 25%
extensive-stage SCLC
  response rate, extensive-stage SCLC: 79%
[3]
  grade 3 or 4 anemia: 23.0%
  grade 3 or 4 anorexia: 4.9%
  grade 3 or 4 leukopenia: 52.5%
  grade 3 or 4 nausea/vomiting: 4.9%
  grade 3 or 4 neutropenia: 72.1%
  grade 3 or 4 thrombocytopenia: 14.8%

## CC(O)[C@]1(N)Cc2c(O)c3c(c(O)c2[C@@H](O[C@H]2C[C@H](O)[C@H](O)CO2)C1)C(=O)c1ccccc1C3=O (stereo partly shown) [amrubicinol]
DNA
  strength as a DNA intercalator relative to doxorubicin (weaker): approximately 1/10
